This is an account of results in patent publication US8987242B2, “Morpholinone compounds as factor IXA inhibitors” (Merck Sharp & Dohme Corp., priority 2008, dated 2015).

Where a name gives a salt, the structure may show the parent alone.

Chain of human factor IXa (P00740 227-461): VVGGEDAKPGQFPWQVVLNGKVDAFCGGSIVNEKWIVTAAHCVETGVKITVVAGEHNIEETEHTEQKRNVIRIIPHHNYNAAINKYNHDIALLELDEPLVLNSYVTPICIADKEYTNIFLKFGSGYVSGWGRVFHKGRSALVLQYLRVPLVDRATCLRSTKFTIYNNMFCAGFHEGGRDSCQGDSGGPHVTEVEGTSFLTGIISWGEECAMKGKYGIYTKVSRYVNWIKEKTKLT
Chain of human factor IXa (P00740 47-191 partner): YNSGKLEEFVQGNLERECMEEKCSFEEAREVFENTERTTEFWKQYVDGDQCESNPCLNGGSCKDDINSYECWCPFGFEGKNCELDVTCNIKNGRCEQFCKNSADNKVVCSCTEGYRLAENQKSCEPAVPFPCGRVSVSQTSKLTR

One assay concerns the target human factor IXa (Homo sapiens (Human), UniProt P00740). Description: Determination of inhibitory activity against factor IXa (SPECTROFLUOR FIXa fluorogenic substrate enzyme assay). The assay is classed as biochemical. As to conditions: human factor IXa 2.0 μg/ml, SPECTROFLUOR FIXa 100 μM, 60 minutes at room temperature, pH 8.0; read-out: Factor IXa enzyme assay IC50. The protocol: Inhibitory activity against factor IXa was tested using the substrate SPECTROFLUOR FIXa (american diagnostica inc.; 500 West Avenue, Stamford, Conn. 06902 USA; Pr. No. 299F) and human factor IXa (american diagnostica inc.; Pr. No. 449b). Test substances dissolved in buffer A (50 mM α,α,α-tris(hydroxymethyl)methylamine (Tris), 100 mM NaCl, 5 mM CaCl2, 15% (v/v) ethylene glycol, pH 8.0) were mixed with factor IXa (2.0 μg/ml final concentration). The enzyme reaction was started by addition of SPECTROFLUOR FIXa (100 μM final concentration). After incubation for 60 minutes at room temperature, the reaction was stopped by the addition of 20% (v/v) acetic acid solution, and then measured the fluorescence value (Excitation Wavelength: 355 nm, Emission Wavelength; 460 nm) in a microtiter plate reader (ARVO 1420 Multilabel Counter; PerkinElmer).
The IC50 was calculated from a dilution series of the test substance with the aid of the software, Symix Assay Explorer (Symyx Technologies, Inc.).
By IC50 is commonly meant the point on the concentration scale where inhibition reaches its midpoint. Take `N#Cc1ccccc1N1CCO[C@H]([C@@H](O)C(=O)Nc2ccc3c(c2)CNC3=N)C1=O` [Example aa142, 4-(2-Cyanophenyl)-N-(2,3-dihydro-1-imino-1h-isoindol-5-yl)-alpha(R)-hydroxy-3-oxo-2(R)-morpholine acetamide]: the IC50 came out at 66 nM.
On the same count and under the same terms, in the case of `N=C1NCc2cc(NC(=O)[C@H](O)[C@H]3OCCN(c4ccc(F)c(C(=O)N5CCOCC5)c4)C3=O)ccc21` [Example aa144, N-(2,3-Dihydro-1-imino-1h-isoindol-5-yl)-4-[4-fluoro-3-(4-morpholinylcarbonyl)phenyl]-alpha(R)-hydroxy-3-oxo-2(R)-morpholineacetamide] it was 13 nM; in that of `Nc1noc2cc(NC(=O)[C@H](O)[C@H]3OCCN(c4ccc(S(F)(F)(F)(F)F)cc4)C3=O)ccc12` [Example aa151, [4-[2(R)-[2-[(3-Amino-1,2-bcnzisoxazol-6-yl)amino]-1(R)-hydroxy-2-oxoethyl]-3-oxo-4-morpholinyl]phenyl] pentafluorosulfur], 380 nM; in that of `Nc1noc2cc(NC(=O)[C@H](O)[C@H]3OCCN(c4ccc(F)c(C(=O)N5CCOCC5)c4)C3=O)c(F)cc12` [Example aa152, N-(3-Amino-5-fluoro-1,2-benzisoxazol-6-yl)-4-[4-fluoro-3-(4-morpholinylcarbonyl)phenyl]-alpha(R)-hydroxy-3-oxo-2(R)-morpholineacetamide], 1200 nM.

Still in this assay, the particulars now being: human factor IXa 2.0 μg/ml, SPECTROFLUOR FIXa 100 μM, 60 minutes at room temperature, pH 8.0; read-out: Factor IXa enzyme assay IC50 [micro M].
Consider `Cc1ccc(N2CCOC(C(O)C(=O)Nc3ccc4c(N)nccc4c3)C2=O)cc1` (stereo not shown) [Example 1, N-(1-aminoisoquinolin-6-yl)-2-hydroxy-2-(3-oxo-4-p-tolylmorpholin-2-yl)acetamide trifluoroacetate], for which the IC50 was 40 nM.
Still for that read-out and setting: in the case of `Cc1ccc(N2CCOC(C(O)C(=O)Nc3ccc(C(=N)N)cc3)C2=O)cc1` (stereo not shown) [Example 2, N-(4-amidinophenyl)-2-hydroxy-2-(3-oxo-4-p-tolylmorpholin-2-yl)acetamide trifluoroacetate] it was 30 nM; in that of `N=C(N)c1ccc(NC(=O)[C@H](O)[C@H]2OCCN(c3ccc(C4CCCCC4)cc3)C2=O)cc1` [Example 15, (2R)—N-(4-amidinophenyl)-2-[(2R)-4-(4-cyclohexylphenyl)-3-oxomorpholin-2-yl]-2-hydroxyacetamide hydrochloride], 20 nM; in that of `N=C(N)c1ccc(NC(=O)[C@H](O)[C@H]2OCCN(c3cccc(NC(=O)CO)c3)C2=O)cc1` [Example 50, (2R)—N-(4-amidinophenyl)-2-hydroxy-2-[(2R)-4-[3-[(2-hydroxyacetyl)amino]phenyl]-3-oxomorpholin-2-yl]acetamide hydrochloride], 20 nM.
Still for that read-out and setting: in the case of `Cc1ccc(N2CCO[C@H]([C@@H](O)C(=O)Nc3ccc4c(N)nccc4c3)C2=O)cc1` [Example 62, (2R)—N-(1-aminoisoquinolin-6-yl)-2-hydroxy-2-[(2R)-3-oxo-4-p-tolylmorpholin-2-yl]acetamide hydrochloride] it was 20 nM; in that of `CC(C)(C)c1ccc(N2CCO[C@H]([C@@H](O)C(=O)Nc3ccc(C(=N)N)cc3F)C2=O)cc1` [Example 67, (2R)—N-(4-amidino-2-fluorophenyl)-2-[(2R)-4-(4-tert-butylphenyl)-3-oxomorpholin-2-yl]-2-hydroxyacetamide acetate], 60 nM.
In the case of `CS(=O)(=O)c1ccccc1-c1ccc(N2CCO[C@H]([C@@H](O)C(=O)Nc3ccc(C(=N)N)cc3)C2=O)cc1` [Example 105, (2R)—N-(4-amidinophenyl)-2-hydroxy-2-[(2R)-4-[4-(2-methylsulfonylphenyl)phenyl]-3-oxomorpholin-2-yl]acetamide hydrochloride], the IC50 is 10 nM.
Same read-out and setting: the figure for `CC(=O)N1CCN(c2ccc(C)cc2)C(=O)C1C(O)C(=O)Nc1ccc2c(N)nccc2c1` (stereo not shown) [Example 109, 2-[1-acetyl-3-oxo-4-(p-tolyl)piperazin-2-yl]-N-(1-amino-6-isoquinolyl)-2-hydroxy-acetamide trifluoroacetate] is 60 nM; for `Cc1ccc(N2CCCO[C@H]([C@@H](O)C(=O)Nc3ccc(C(=N)N)cc3)C2=O)cc1` [Example 114, (2R)—N-(4-amidinophenyl)-2-hydroxy-2-[(2R)-3-oxo-4-(p-tolyl)-1,4-oxazepan-2-yl]acetamide hydrochloride] it is 30 nM.
